Assays:
293T cells [1] = experiment: Western blot of 293T cells treated with inhibitors; format: cell-based, human
293T cells [2] = details: 30 min; cited from earlier work

| SMILES | phosphorylation of AKT (pAKT) (293T cells [1]; 3 and 16 h of treatment) | phosphorylation of S6 (293T cells [1]; 3 h time point) | phosphorylation of S6 (293T cells [1]; 16 h time point) | S6 phosphorylation (293T cells [2]) | phosphorylation of S6 (pS6 levels) (293T cells [1]; 3 and 16 h of treatment) |
| --- | --- | --- | --- | --- | --- |
| CCc1cncnc1N1CCN(Cc2nc3ccc(C(F)(F)F)cc3[nH]2)CC1 [PF-4708671] | no effect on the phosphorylation of AKT | modest decrease in phosphorylation of S6 | returned to near basal levels | significant reduction in S6 phosphorylation | – |
| COc1ccc(-c2ccc3c(N4CCOC[C@@H]4C)nc(N4CCOC[C@@H]4C)nc3n2)cc1CO [AZD8055] | decrease in pAKT at T308 and S473 | – | – | – | significant decrease in pS6 levels at both the S235 and S240 sites |

Source: publication PMC4289024 (Journal of Medicinal Chemistry, 2014)
